# According to patent US20220117958A1, “COMPOSITIONS AND METHODS FOR INHIBITING ACSS2” (THE TRUSTEES OF THE UNIVERSITY OF PENNSYLVANIA, priority 2018, published 2022):
# Key:
# Format in all cases: in vitro ADME
# [1] = Microsomal stability assay (half-life), mouse; conditions: Mouse (CD1) microsomes, read-out: Microsomal stability T1/2
# Description: (§1) Table 20 provides results of in vitro and in vivo pharmacokinetics performed for each of the represented compounds.
# [2] = Microsomal stability assay (half-life), human; conditions: Human microsomes, read-out: Microsomal stability T1/2
# Description: as §1
# [3] = Microsomal stability assay (half-life), rat; conditions: Rat (SD) microsomes, read-out: Microsomal stability T1/2
# Description: as §1
# [4] = Protein binding via Rapid Equilibrium Dialysis - plasma; conditions: Rat (SD) plasma, 2 μM
# Description: as §1
half-life at 2 μM [1],half-life at 2 μM [2],half-life at 2 μM [3],"Protein binding, plasma: % Protein free [4]",SMILES
< 15 min,7.97 min,6.13 min,,"CCOc1ccc2ccc(=O)oc2c1 [7-Ethoxycoumarin, reference compound]"
,,,0.5177 % Protein free,"CC(=O)CC(c1ccccc1)c1c(O)c2ccccc2oc1=O (stereo not shown) [Warfarin, reference compound]"
